Laboratory results published in ChEMBL document CHEMBL1201862, “PubChem BioAssay data set” (2004).
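Following 48 hours of exposure in 96-well plates, responses at five concentrations were used to interpolate endpoints linearly. GI50 is the concentration that inhibits growth by half.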 Active and inactive are the calls of the source. No stated cut-off is given here; in the data, active = GI50 up to about 1.1 µM and inactive = higher.

Experiments:
Assay in all cases: DTP human tumour cell line panel, 48 h
HOP-92 = tested on: HOP-92
UACC-62 = tested on: UACC-62
NCI-H522 = tested on: NCI-H522
RXF 393 = tested on: RXF 393
DU-145 = tested on: DU-145
OVCAR-5 = tested on: OVCAR-5
SN12C = tested on: SN12C
MDA-N = tested on: MDA-N
U-251 = tested on: U-251
OVCAR-3 = tested on: OVCAR-3
SF-268 = tested on: SF-268
EKVX = tested on: EKVX
HOP-62 = tested on: HOP-62
K562 = tested on: K562
IGROV-1 = tested on: IGROV-1
T47D = tested on: T47D
MDA-MB-231 = tested on: MDA-MB-231
NCI-H23 = tested on: NCI-H23
ACHN = tested on: ACHN

Row | Compound | GI50 (HOP-92) | GI50 (UACC-62) | GI50 (NCI-H522) | GI50 (RXF 393) | GI50 (DU-145) | GI50 (OVCAR-5) | GI50 (SN12C) | GI50 (MDA-N) | GI50 (U-251) | GI50 (OVCAR-3) | GI50 (SF-268) | GI50 (EKVX) | GI50 (HOP-62) | GI50 (K562) | GI50 (IGROV-1) | GI50 (T47D) | GI50 (MDA-MB-231) | GI50 (NCI-H23) | GI50 (ACHN)
1 | Oc1ccccc1-c1n[nH]c(-c2ccccc2O)n1 | 1.75 µM (inactive) | 7.59 µM (inactive) | 1.64 µM (inactive) | 2.23 µM (inactive) | 8.13 µM (inactive) | 7.11 µM (inactive) | 2.17 µM (inactive) | > 100 µM (inactive) | 3.25 µM (inactive) | 0.28 µM (active) | 3.05 µM (inactive) | 2.11 µM (inactive) | 1.77 µM (inactive) | 3.64 µM (inactive) | 0.407 µM (active) | 2.21 µM (inactive) | 1.44 µM (inactive) | 1.71 µM (inactive) | 2.21 µM (inactive)
2 | Cc1nc2ccccc2nc1-c1ccc(/N=[N+](\[O-])c2ccc(-c3nc4ccccc4nc3C)cc2)cc1 | > 39.5 µM (inactive) | > 93.5 µM (inactive) | > 63.4 µM (inactive) | 28.8 µM (inactive) | > 94.4 µM (inactive) | > 100 µM (inactive) | > 92.7 µM (inactive) | > 100 µM (inactive) | 27.5 µM (inactive) | > 100 µM (inactive) | 36.6 µM (inactive) | > 100 µM (inactive) | 23.9 µM (inactive) | > 100 µM (inactive) | > 82.4 µM (inactive) | > 100 µM (inactive) | 24.2 µM (inactive) | > 83.4 µM (inactive) | > 55.7 µM (inactive)
3 | CC(C)C(Br)C(=O)NCC(=O)O (stereo not given) | > 100 µM (inactive) | > 100 µM (inactive) | > 100 µM (inactive) | > 100 µM (inactive) | > 100 µM (inactive) | > 100 µM (inactive) | > 100 µM (inactive) | > 100 µM (inactive) | > 100 µM (inactive) | > 100 µM (inactive) | > 100 µM (inactive) | > 100 µM (inactive) | > 100 µM (inactive) | > 100 µM (inactive) | > 100 µM (inactive) | > 100 µM (inactive) | > 100 µM (inactive) | > 100 µM (inactive) | > 100 µM (inactive)
4 | C=O.NNCCc1n[nH]c(=O)n1N | > 100 µM (inactive) | > 100 µM (inactive) | > 100 µM (inactive) | > 100 µM (inactive) | > 100 µM (inactive) | > 100 µM (inactive) | > 100 µM (inactive) | > 100 µM (inactive) | > 100 µM (inactive) | > 100 µM (inactive) | > 100 µM (inactive) | > 100 µM (inactive) | > 100 µM (inactive) | > 100 µM (inactive) | > 100 µM (inactive) | > 100 µM (inactive) | > 100 µM (inactive) | > 100 µM (inactive) | > 100 µM (inactive)
5 | Cn1nnc2c(C(N)=S)ncn2c1=O | > 100 µM (inactive) | > 100 µM (inactive) | > 100 µM (inactive) | > 100 µM (inactive) | > 100 µM (inactive) | > 100 µM (inactive) | > 100 µM (inactive) | > 100 µM (inactive) | > 100 µM (inactive) | > 100 µM (inactive) | > 100 µM (inactive) | > 100 µM (inactive) | > 100 µM (inactive) | > 100 µM (inactive) | > 100 µM (inactive) | > 100 µM (inactive) | > 100 µM (inactive) | > 100 µM (inactive) | > 100 µM (inactive)
6 | C/C(=N/NC(=S)N(C)C)c1ccccc1O | > 75.2 µM (inactive) | 6.46 µM (inactive) | 9.86 µM (inactive) | 23 µM (inactive) | 18.9 µM (inactive) | 17.4 µM (inactive) | 14.4 µM (inactive) | 11.9 µM (inactive) | 6.35 µM (inactive) | 2.97 µM (inactive) | 6.07 µM (inactive) | 29.1 µM (inactive) | 5.81 µM (inactive) | 19.1 µM (inactive) | 5.98 µM (inactive) | 14.5 µM (inactive) | 35.8 µM (inactive) | 20.7 µM (inactive) | 6.31 µM (inactive)
7 | COC(=O)c1cc(C#N)[nH]c1-c1cc(Br)cs1 | 3.61 µM (inactive) | 15.8 µM (inactive) | 2.1 µM (inactive) | 5.32 µM (inactive) | 13.3 µM (inactive) | 16.3 µM (inactive) | 14.9 µM (inactive) | 15.4 µM (inactive) | 13.3 µM (inactive) | 4.78 µM (inactive) | 17.7 µM (inactive) | 16.1 µM (inactive) | 11.1 µM (inactive) | 20.3 µM (inactive) | 13.4 µM (inactive) | 2.13 µM (inactive) | 20.2 µM (inactive) | 6.67 µM (inactive) | 19.6 µM (inactive)
8 | C=CC/N=C(\S)Nc1sc2c(c1C(=O)OCC)CC(C)CC2 (stereo not given) | 33 µM (inactive) | 20.6 µM (inactive) | 20.6 µM (inactive) | 26.5 µM (inactive) | 30.6 µM (inactive) | 30.3 µM (inactive) | 29.9 µM (inactive) | 30.5 µM (inactive) | 32.6 µM (inactive) | 20.3 µM (inactive) | 35 µM (inactive) | 28.1 µM (inactive) | 23.1 µM (inactive) | 33 µM (inactive) | 33.3 µM (inactive) | 21.4 µM (inactive) | 24.8 µM (inactive) | 32.7 µM (inactive) | 22.9 µM (inactive)
9 | CC(=O)c1ccc2c(c1)CC1(C2)Cc2cc3c(c(C(=O)O)c2C1)CCC3 (stereo not given) | 22.6 µM (inactive) | 72.1 µM (inactive) | 79.6 µM (inactive) | > 100 µM (inactive) | > 100 µM (inactive) | > 100 µM (inactive) | > 100 µM (inactive) | > 100 µM (inactive) | 55.8 µM (inactive) | 92.5 µM (inactive) | > 100 µM (inactive) | > 100 µM (inactive) | > 100 µM (inactive) | 72.4 µM (inactive) | > 100 µM (inactive) | 53.5 µM (inactive) | > 100 µM (inactive) | > 100 µM (inactive) | 68.1 µM (inactive)
10 | COC(=O)NC1=NNC(=O)c2ccccc2N1 | > 100 µM (inactive) | > 100 µM (inactive) | > 100 µM (inactive) | > 100 µM (inactive) | > 100 µM (inactive) | > 100 µM (inactive) | > 100 µM (inactive) | > 100 µM (inactive) | > 100 µM (inactive) | > 100 µM (inactive) | > 100 µM (inactive) | > 100 µM (inactive) | > 100 µM (inactive) | > 100 µM (inactive) | > 100 µM (inactive) | > 100 µM (inactive) | > 100 µM (inactive) | > 100 µM (inactive) | > 100 µM (inactive)
11 | COC(=O)c1c(C)nc(C)c(NO)c1-c1ccccc1C(F)(F)F | 14.2 µM (inactive) | 64.9 µM (inactive) | 17.2 µM (inactive) | 16.7 µM (inactive) | 32.8 µM (inactive) | 31.8 µM (inactive) | 27 µM (inactive) | 16.8 µM (inactive) | > 100 µM (inactive) | 16.7 µM (inactive) | 41.4 µM (inactive) | 83 µM (inactive) | > 100 µM (inactive) | 28.3 µM (inactive) | 18.8 µM (inactive) | 28 µM (inactive) | 13.8 µM (inactive) | 35.6 µM (inactive) | 30.8 µM (inactive)
12 | CCOC(=O)/C=C/C1OC(C)(C)OC1/C=C/C(=O)OCC (stereo not given) | 19.4 µM (inactive) | 39.9 µM (inactive) | 22.5 µM (inactive) | 9.91 µM (inactive) | 34.8 µM (inactive) | 29.9 µM (inactive) | 22.6 µM (inactive) | 35.1 µM (inactive) | 41.3 µM (inactive) |  | 41.4 µM (inactive) | 29.8 µM (inactive) | 23.7 µM (inactive) | 21.4 µM (inactive) | 31.3 µM (inactive) | 29.4 µM (inactive) | 39.9 µM (inactive) | 40.6 µM (inactive) | 38.4 µM (inactive)
13 | NC(=O)C(Nc1c(Cl)cccc1Cl)c1cc2cc(Br)ccc2nc1Cl (stereo not given) | 37.7 µM (inactive) | 44.1 µM (inactive) | 25.9 µM (inactive) | 41.7 µM (inactive) | > 100 µM (inactive) | > 100 µM (inactive) | 63.1 µM (inactive) | 27.6 µM (inactive) |  | 52.8 µM (inactive) | 49.8 µM (inactive) | 25.8 µM (inactive) | 65.8 µM (inactive) | 29.4 µM (inactive) | 28.1 µM (inactive) | 44.4 µM (inactive) | 44.1 µM (inactive) | 44.6 µM (inactive) | 80.9 µM (inactive)
14 | N=C(N)N/N=C\c1c(-c2ccccc2)nc2sccn12 | 14.1 µM (inactive) | 15.9 µM (inactive) | 12.1 µM (inactive) | 13.4 µM (inactive) | 19 µM (inactive) | 16.9 µM (inactive) | 15.4 µM (inactive) | 14.1 µM (inactive) | 15.2 µM (inactive) |  | 16.4 µM (inactive) | 14.5 µM (inactive) | 15.7 µM (inactive) | 17.3 µM (inactive) | 13.6 µM (inactive) | 14.3 µM (inactive) | 12.7 µM (inactive) | 12.5 µM (inactive) | 16.9 µM (inactive)
15 | Nc1ccc(-c2nc3ccccc3s2)cc1C(F)(F)F | 16.3 µM (inactive) | 16.9 µM (inactive) | 16.8 µM (inactive) | 9.08 µM (inactive) | 15.8 µM (inactive) |  | 13.6 µM (inactive) | 13.6 µM (inactive) | 15 µM (inactive) | 16.4 µM (inactive) | 16 µM (inactive) | 11 µM (inactive) | 15.4 µM (inactive) | 20 µM (inactive) |  | 5.31 µM (inactive) | 13.2 µM (inactive) | 13.5 µM (inactive) | 15.2 µM (inactive)
